Biological target: T1, BRD9 (Homo sapiens, UniProt Q9H8M2)
T1 sequence (Q9H8M2 1-597): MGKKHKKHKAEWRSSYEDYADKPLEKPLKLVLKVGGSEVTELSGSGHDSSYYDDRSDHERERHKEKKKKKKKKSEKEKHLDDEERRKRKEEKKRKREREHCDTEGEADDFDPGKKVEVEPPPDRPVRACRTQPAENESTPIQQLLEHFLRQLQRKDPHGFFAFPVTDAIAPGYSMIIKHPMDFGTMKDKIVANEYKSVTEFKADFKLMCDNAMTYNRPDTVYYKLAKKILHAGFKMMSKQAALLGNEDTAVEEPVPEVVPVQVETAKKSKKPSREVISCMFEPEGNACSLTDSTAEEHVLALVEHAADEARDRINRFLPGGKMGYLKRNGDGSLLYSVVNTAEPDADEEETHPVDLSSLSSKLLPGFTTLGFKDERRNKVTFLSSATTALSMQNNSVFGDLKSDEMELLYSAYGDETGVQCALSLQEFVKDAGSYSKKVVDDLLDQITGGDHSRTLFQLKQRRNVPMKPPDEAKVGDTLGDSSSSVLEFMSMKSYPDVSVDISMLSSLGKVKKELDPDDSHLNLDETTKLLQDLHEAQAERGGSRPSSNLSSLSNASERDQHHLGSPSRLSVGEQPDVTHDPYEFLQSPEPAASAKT
Assay: HiBit Lytic Assay (HiBit DC50, BRD9 degraders of Table 1)
Type: cell-based
Conditions: 11-point half log dose response, NanoLuc signal
Description: Example 3. HiBit Lytic Assay
• Compound is made at 10 mM, half log dilution, 11 points. • MDR plates can also be ordered from Frontier with same format. • 1. Barcode a 384LDV plate (384-well Low Dead Volume Microplate, Labcyte LP-0200) (Echo compatible) on the left side. • 2. Transfer 13.6 μL of 10 mM compound into column 1 of LDV plate (Labcyte). • 3. Fill column 2-11 and column 23 of MDR plate with 9.30 μL of DMSO. • 4. Serial dilute 3.16 fold from column 1 to 2 by transferring 4.30 μL from column 1 to column 2, and so on to column 11. *Change tip in every dilution to prevent compound carryover effect! • 5. Seal the plate with Plate Sealer, then store the MDR plate at room temperature for short term storage and in −20° C. for long term storage.
• Cells are treated with 30 nL of each compound at 10 mM, half log dilution, 11 points with final concentration of 1000 nM or 833 nM, half log dilution, 11 points, in duplicates. Final DMSO concentration is 0.1%. • 1. Barcode the plates made on the left side and label the plates with silver marker. • 2. Dispense with the following scheme: • a. 30 nL of compound into corresponding wells in cell plates via Echo550 with “MDR32_HiBiT16_30 nL”. Top concentration will be 1000 nM. • 3. Seal the plate with Plate Sealer.
• Cells are dispensed at density specified in Cell Line Table in 384-well microplate. • 1. Culture cells to between 50-80% of confluence in sterile culture flasks of appropriate size. • 2. For Adherent Cell Lines: • a. Aspirate off growth media in culture flask, and wash off the Phenol Red media with 5 mL of 1×PBS. • b. Add 5 mL of Trypsin to the cells, incubate at 37° C. for 5 minutes. • c. Add 5 mL of growth media to the trypsinzed cells, and resuspend. • 3. Remove 10 μL of cells, and resuspend the cells with 10 μL of Trypan Blue. Insert the solution to counting chamber slide, and count the cells via cell counter. • 4. Adjust the cell concentration to specified plating density, and strain the cells with cell strainer. • 5. Dispense the cells via E1-ClipTip™ Electronic Multichannel Pipettes or Multidrop™ Combi Reagent Dispenser with Standard tube dispensing cassette: • a. Prime the cassette with 10-20 mL of ddH2O. • b. Prime the cassette with 10-20 mL of cells. • c. Dispense the cells at low speed for 30 μL/well in Corning® 384 Well Low Flange Black Flat Bottom Polystyrene TC-Treated Microplate. • d. Wash the cassette with 10-20 mL of ddH2O, follow by 10-20 mL of 70% EtOH, then again with 10-20 mL of ddH2O. • 6. Incubate the plates at 37° C.×compound treatment time.
• 1. If not already, bring Nano-Glo® HiBiT Lytic Buffer to room temperature. • 2. Determine the amount of reagent needed. A volume of reagent equal to the volume of media in the well should be added (i.e. 30 μL of cells will need 30 μL of HiBiT Lytic reagent). • 3. Into a given volume of buffer, dilute the substrate 50-fold and the LgBiT protein 100-fold. For example, to make 10 ml of reagent, add the following: • 10 ml Nano-Glo® HiBiT Lytic Buffer • 200 μl Nano-Glo® HiBiT Lytic Substrate • 100 μl LgBiT Protein • The reagent should be reconstituted immediately before use. However, once reconstituted, it should take about 4 hours for the activity to decrease 10%. • 4. Cool down the cell plate to room temperature for 10-15 minutes without lid. • 5. Dispense the HiBiT Lytic Reagent via E1-ClipTip™ Electronic Multichannel Pipettes or Multidrop™ Combi Reagent Dispenser with Standard tube dispensing cassette: • a. Prime the cassette with 10-20 mL of ddH2O. • b. Prime the cassette with 10-20 mL of CTG 2.0. • c. Dispense the HiBiT Lytic Reagent at medium speed for 30 μL/well in cell plate to column 1-23 (column 24 will be used as plate background). • d. Wash the cassette with 10-20 mL of ddH2O, follow by 10-20 mL of 70% EtOH, then again with 10-20 mL of ddH2O. • 6. Incubate the cell plate at room temperature for 10 minutes without lid. • 7. […]

| SMILES | DC50 [nM] |
| --- | --- |
| COc1cc(-c2cn(C)c(=O)c3[nH]ncc23)cc(OC)c1CNCC(=O)NCCCCCNC(=O)CCc1ccc2c(c1)C(=O)N(C1CCC(=O)NC1=O)C2=O (stereo not shown) [Compound 207, N-[5-[[2-[[2,6-dimethoxy-4-(6-methyl-7-oxo-1H-pyrazolo[3,4-c]pyridin-4 yl)phenyl]methylamino]acetyl]amino]pentyl]-3-[2-(2,6-dioxo-3-piperidyl)-1,3-dioxo-isoindolin-5-yl]propanamide] | < 100 |
| COc1cc(-c2cn(C)c(=O)c3c2cnn3C)cc(OC)c1CNCC(=O)NCCCCCCCCCc1cccc2c1C(=O)N(C1CCC(=O)NC1=O)C2=O (stereo not shown) [Compound 208, 2-[[4-(1,6-dimethyl-7-oxo-pyrazolo[3,4-c]pyridin-4-yl)-2,6-dimethoxy-phenyl]methylamino]-N-[9-[2-(2,6-dioxo-3-piperidyl)-1,3-dioxo-isoindolin-4-yl]nonyl]acetamide] | < 100 |
| COc1cc(-c2cn(C)c(=O)c3c2ccn3C)cc(OC)c1CN(C)CC(=O)NCCCCCCCCNc1cccc2c1C(=O)N(C1CCC(=O)NC1=O)C2=O (stereo not shown) [Compound 209, 2-[[4-(1,6-dimethyl-7-oxo-pyrrolo[2,3-c]pyridin-4-yl)-2,6-dimethoxy-phenyl]methyl-methyl-amino]-N-[8-[[2-(2,6-dioxo-3-piperidyl)-1,3-dioxo-isoindolin-4-yl]amino]octyl]acetamide] | < 100 |
| COc1cc(-c2cn(C)c(=O)c3c2ccn3C)cc(OC)c1CN(C)CC(=O)NCCCCCCCCNC(=O)c1ccc(=O)n(C2CCC(=O)NC2=O)c1 (stereo not shown) [Compound 218, N-[8-[[2-[[4-(1,6-dimethyl-7-oxo-pyrrolo[2,3-c]pyridin-4-yl)-2,6-dimethoxy-phenyl]methyl-methyl-amino]acetyl]amino]octyl]-1-(2,6-dioxo-3-piperidyl)-6-oxo-pyridine-3-carboxamide] | < 1000 |
| COc1cc(-c2cn(C)c(=O)c3c2ccn3C)cc(OC)c1CN(C)CC(=O)NCCCCCCCCNc1cccc2c1CN(C1CCC(=O)NC1=O)C2=O (stereo not shown) [Compound 220, 2-[[4-(1,6-dimethyl-7-oxo-pyrrolo[2,3-c]pyridin-4-yl)-2,6-dimethoxy-phenyl]methyl-methyl-amino]-N-[8-[[2-(2,6-dioxo-3-piperidyl)-1-oxo-isoindolin-4-yl]amino]octyl]acetamide] | < 100 |
| COc1cc(-c2cn(C)c(=O)c3cnccc23)cc(OC)c1CNCC(=O)NCCCCCCCCNc1cccc2c1C(=O)N(C1CCC(=O)NC1=O)C2=O (stereo not shown) [Compound 221, 2-[[2,6-dimethoxy-4-(2-methyl-1-oxo-2,7-naphthyridin-4-yl)phenyl]methylamino]-N-[8-[[2-(2,6-dioxo-3-piperidyl)-1,3-dioxo-isoindolin-4-yl]amino]octyl]acetamide] | < 100 |
| COc1cc(-c2cn(C)c(=O)c3cnccc23)cc(F)c1CN(C)CC(=O)NCCCCCCCCNc1cccc2c1C(=O)N(C1CCC(=O)NC1=O)C2=O (stereo not shown) [Compound 222, N-[8-[[2-(2,6-dioxo-3-piperidyl)-1,3-dioxo-isoindolin-4-yl]amino]octyl]-2-[[2-fluoro-6-methoxy-4-(2-methyl-1-oxo-2,7-naphthyridin-4-yl)phenyl]methyl-methyl-amino]acetamide] | < 100 |
| COc1cc(-c2cn(C)c(=O)c3cnccc23)cc(OC)c1COCC(=O)NCCCCCCCCNc1cccc2c1C(=O)N(C1CCC(=O)NC1=O)C2=O (stereo not shown) [Compound 223, 2-[[2,6-dimethoxy-4-(2-methyl-1-oxo-2,7-naphthyridin-4-yl)phenyl]methoxy]-N-[8-[[2-(2,6-dioxo-3-piperidyl)-1,3-dioxo-isoindolin-4-yl]amino]octyl]acetamide] | < 100 |
| COc1cc(-c2cn(C)c(=O)c3cnccc23)cc(OC)c1C(C)N(C)CC(=O)NCCCCCCCCNc1cccc2c1C(=O)N(C1CCC(=O)NC1=O)C2=O (stereo not shown) [Compound 224, 2-[1-[2,6-dimethoxy-4-(2-methyl-1-oxo-2,7-naphthyridin-4-yl)phenyl]ethyl-methyl-amino]-N-[8-[[2-(2,6-dioxo-3-piperidyl)-1,3-dioxo-isoindolin-4-yl]amino]octyl]acetamide] | < 100 |
| COc1cc(-c2cn(C)c(=O)c(C)n2)cc(OC)c1CN(C)CC(=O)NCCCCCCCCNc1cccc2c1C(=O)N(C1CCC(=O)NC1=O)C2=O (stereo not shown) [Compound 225, 2-((4-(4,6-dimethyl-5-oxo-4,5-dihydropyrazin-2-yl)-2,6-dimethoxybenzyl)(methyl)amino)-N-(8-((2-(2,6-dioxopiperidin-3-yl)-1,3-dioxoisoindolin-4-yl)amino)octyl)acetamide] | < 100 |

Reference: patent publication US20210198256A1, “COMPOUNDS FOR THE DEGRADATION OF BRD9 OR MTH1” (C4 Therapeutics, Inc., priority 2018, published 2021)
